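Growth conditions: 96-well plates. Treatment: test compound, 48 hours, 5 concentrations. Analysis: linear interpolation between bracketing concentrations; unreached endpoints set to highest concentration. Here, GI50 denotes the concentration required for 50% inhibition of growth. TGI denotes the concentration required for complete inhibition of growth.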
What was measured:
Assay in all cases: DTP human tumour cell line panel, 48 h
HT29 colon = system: HT29 colon
K-562 leukemia = system: K-562 leukemia
NCI-H226 lung = system: NCI-H226 lung
OVCAR-8 ovarian = system: OVCAR-8 ovarian
SF-295 CNS = system: SF-295 CNS
SNB-78 CNS = system: SNB-78 CNS
MDA-MB-435 = system: MDA-MB-435
DMS 114 small cell lung = system: DMS 114 small cell lung
DLD-1 colon = system: DLD-1 colon

SMILES	TGI (HT29 colon) [µM]	TGI (K-562 leukemia) [µM]	TGI (NCI-H226 lung) [µM]	TGI (OVCAR-8 ovarian) [µM]	TGI (SF-295 CNS) [µM]	TGI (SNB-78 CNS) [µM]	TGI (MDA-MB-435) [µM]	GI50 (HT29 colon) [µM]	GI50 (K-562 leukemia) [µM]	GI50 (MDA-MB-435) [µM]	GI50 (NCI-H226 lung) [µM]	GI50 (OVCAR-8 ovarian) [µM]	GI50 (SF-295 CNS) [µM]	TGI (DMS 114 small cell lung) [µM]	TGI (DLD-1 colon) [µM]
Cc1cc(=O)n2c(cc3cccccc32)n1	> 100	> 100	> 100	> 100	> 100	> 100	–	–	–	–	–	–	–	–	–
CCc1nc(N)nc(N)c1-c1ccc(N(C)Cc2ccccc2)c([N+](=O)[O-])c1	14.6	3.98	23.2	30	15.3	–	17.9	–	–	–	–	–	–	–	–
CN(C)C[C@@H]1CCn2cc(c3ccccc32)C2=C(C(=O)NC2=O)c2cn(c3ccccc23)CCO1	> 10	3.37	> 10	8.33	> 10	–	> 10	3.32	0.916	1.46	2	0.598	3.3	–	–
Cc1ccc(-c2nc3ccccc3c(=O)n2NC2OC(CO)C(O)C(O)C2O)cc1 (stereo not drawn)	> 100	> 100	> 100	> 100	> 100	> 100	–	–	–	–	–	–	–	> 100	–
COC1/C=C/OC2(C)Oc3c(C)c(O)c4c(O)c(c(/C=N/N(c5ccccc5)c5ccccc5)c(O)c4c3C2=O)NC(=O)C(C)=C/C=C/C(C)C(O)C(C)C(O)C(C)C(OC(C)=O)C1C (stereo not drawn)	2.63	5.69	11.8	7.97	8.82	–	5.05	1.1	1.59	1.65	4.23	1.8	2.18	–	–
CN(C)c1ccc2cc3c(cc2c1)Oc1ccccc1N3.[Cl][Zn][Cl]	> 100	> 100	4.07	> 100	39.7	–	4.19	4.09	3.05	1.98	1.73	5.64	18	–	–
O=C1C(c2ccccc2)=[N+]([O-])c2cc([N+](=O)[O-])ccc21	47.9	58.5	> 100	32.6	> 100	–	–	–	–	–	–	–	–	27.3	46.9
COc1ccc2[nH]cc(Cc3c[nH]c4ccc(OC)cc34)c2c1	32.3	71.4	48.9	37.4	34.5	–	35.3	17.9	19.1	18.1	18.5	17.4	16.6	–	–
CN(C)c1ccc(/C=N/n2c(CCCCc3n[nH]c(=S)n3/N=C/c3ccc(N(C)C)cc3)n[nH]c2=S)cc1	> 100	> 100	> 100	> 100	> 100	–	> 100	> 100	> 100	> 100	> 100	> 100	> 100	–	–
Cc1ccc2c(c1)C(=O)/C(=C/c1cccc(OCC(=O)c3ccc(Cl)cc3)c1)CS2	7.25	8.2	31.4	24.1	12.1	–	6.26	2.81	2.45	2.4	14.9	4.53	3.17	–	–
CC(=O)OC(C)(C)C[N+](=O)[O-]	> 100	> 100	> 100	> 100	> 100	–	–	–	–	–	–	–	–	> 100	> 100
O=c1oc2ccc(I)cc2c(=O)n1-c1ccc(I)cc1F	15.3	> 100	5.88	> 31.7	3.54	–	5.6	3.43	0.436	0.586	1.47	0.704	1.77	–	–
C#Cc1cccc(Nc2ncnc3ccc(-c4cnc(N)nc4)cc23)c1	14.6	> 100	12.8	33.1	12.2	–	15.6	2.36	3.42	3.58	1.98	3.69	2.56	–	–
CC[C@H](C)C(=O)O[C@H]1CCC=C2C=C[C@H](C)[C@H](CC[C@@H]3C[C@@H](O)CC(=O)O3)[C@H]21	> 100	> 100	> 82.2	> 100	4.32	–	> 100	28	22	7.51	6.82	5.05	1.66	–	–
COC(=O)/C=C(C)/C=C/c1c(C)c(C(C)=O)c(C)n1C	> 100	> 100	> 100	> 100	> 100	> 100	–	–	–	–	–	–	–	–	> 100
COC(=O)c1cc2c([nH]c3ccccc32)c(-c2nc3ccccc3cc2CO)n1	> 100	> 100	> 100	> 100	> 100	–	> 100	> 100	> 100	> 100	> 100	> 100	> 100	–	–
Cc1cc2oc(=O)cc(OC/C=C3/CCC(=O)O3)c2cc1C	12.7	34.1	51.1	19.5	32	–	18.5	2.9	8.23	4.64	10.8	4.62	13.7	–	–
NS(=O)(=O)c1ccc(-n2nc(-c3ccccc3)cc2-c2cc(O)ccc2O)cc1	> 100	> 100	> 100	> 100	> 100	–	> 100	74.8	40	92.1	> 100	> 100	> 100	–	–
CCOC1Oc2ccccc2C(=O)/C1=C\Nc1ccc(C(=O)O)c(O)c1 (stereo not drawn)	72.7	> 100	80.1	54	55.4	–	44.4	28.7	36.4	20.4	28.1	19.3	21.9	–	–
Cc1cnc(-c2ccc(-c3ccc(NC(=O)Nc4cccc(C(F)(F)F)c4)cc3F)c3c2C(=O)NC3)[nH]1	> 44.7	31.9	> 42.7	> 57.8	33.6	–	> 47.5	0.853	1.43	12.6	0.933	14.6	4.06	–	–

From PubChem BioAssay (NCI)
